Assays:
[1] = target: T1, Thymidylate kinase (Mycobacterium tuberculosis, UniProt P9WKE1); assay: Inhibition of Mycobacterium tuberculosis TMPK using dTMP substrate and NADH by pyruvate kinase/lactate dehydrogenase coupling system based spectrophotometric assay
T1 sequence (P9WKE1 whole entry): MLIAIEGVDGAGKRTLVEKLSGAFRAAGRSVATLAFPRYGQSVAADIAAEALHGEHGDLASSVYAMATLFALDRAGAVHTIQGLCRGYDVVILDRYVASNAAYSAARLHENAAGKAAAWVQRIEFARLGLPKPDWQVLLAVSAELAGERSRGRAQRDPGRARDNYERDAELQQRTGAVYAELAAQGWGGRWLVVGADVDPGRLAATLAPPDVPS

[2] = system: Vero; assay: Cytotoxic activity against African green monkey Vero cells up to 250 ug/ml; type: cell-based; settings: chlorocebus sabaeus
[3] = system: Vero; assay: Growth inhibition of African green monkey Vero cells up to 250 ug/ml; type: cell-based; settings: chlorocebus sabaeus

SMILES: COC(=O)CCCC#Cc1ccc(Cn2cc(C)c(=O)[nH]c2=O)cc1
- Ki [1]: Not Active

SMILES: Cc1cn(Cc2ccc(CCCCCC(=O)O)cc2)c(=O)[nH]c1=O
- Activity [2]: Non-toxic
- Activity [3]: Non-toxic
